Experiment [1] relates to Mus musculus. As to the kind of experiment: Ex vivo inhibition of LTB4 production in mouse whole blood at 10 mg/kg. The class given is functional.
For a further experiment, the species on record is Homo sapiens. The experiment can be described thus: Inhibition of leukotriene B4 production in human whole blood. In kind it is functional.
Experiment [2] addresses T1, Leukotriene A-4 hydrolase (Homo sapiens, UniProt P09960).
T1 sequence (P09960 whole entry): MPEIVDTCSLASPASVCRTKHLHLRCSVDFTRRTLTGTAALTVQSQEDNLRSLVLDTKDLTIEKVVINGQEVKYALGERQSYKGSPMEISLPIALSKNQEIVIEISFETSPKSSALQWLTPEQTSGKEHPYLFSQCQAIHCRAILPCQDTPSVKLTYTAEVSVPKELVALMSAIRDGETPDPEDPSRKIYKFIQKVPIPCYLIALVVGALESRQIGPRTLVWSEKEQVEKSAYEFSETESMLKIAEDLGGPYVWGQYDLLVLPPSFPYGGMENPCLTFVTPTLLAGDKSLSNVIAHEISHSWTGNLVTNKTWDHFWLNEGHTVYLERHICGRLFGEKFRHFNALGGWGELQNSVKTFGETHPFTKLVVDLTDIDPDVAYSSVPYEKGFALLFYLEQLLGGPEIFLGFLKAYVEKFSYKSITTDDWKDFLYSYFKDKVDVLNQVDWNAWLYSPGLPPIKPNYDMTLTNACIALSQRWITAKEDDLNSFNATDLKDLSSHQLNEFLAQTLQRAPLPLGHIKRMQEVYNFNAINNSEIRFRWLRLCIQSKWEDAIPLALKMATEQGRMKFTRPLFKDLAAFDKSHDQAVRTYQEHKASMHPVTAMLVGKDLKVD
As to the kind of experiment: Inhibition of leukotriene A4 hydrolase in human recombinant assay.

Experiment [3] is filed under the species Mus musculus. As to the kind of experiment: Oral potency for Ex vivo inhibition of LTB4 production in mouse whole blood. The class given is functional.
For experiment [4], the species on record is Mus musculus. The experiment can be described thus: Ex vivo inhibition of LTB4 production in mouse whole blood. The class given is functional.
The species entered for experiment [5] is Rattus norvegicus. The experiment can be described thus: The compound was tested for oral efficacy in rat reversed passive dermal Arthus model; 3-10. The class given is functional.
A further experiment has as its system Rhesus monkey. As to the kind of experiment: The compound showed excellent potency when dosed orally, inhibiting the production of Leukotriene B4. In kind it is functional, Cercopithecidae. Particulars: Macaca mulatta, po.
Experiment [6] deals with Rattus norvegicus. The experiment can be described thus: The compound was orally efficacious in rat peritoneal Leukotriene B4 production. In kind it is functional. Particulars: po.

pIC50: −log10 of the molar value.

Regarding `N#CC1CCN(CCOc2ccc(Cc3ccccc3)cc2)CC1`, at 10 mg/kg the inhibition in vivo in the experiment on Mus musculus [1] (Mus musculus, Blood) was 56%.

With `NC(=O)CC1CCN(CCOc2ccc(Cc3ccccc3)cc2)C1` (configuration not stated), the pIC50 (commonly the negative decadic logarithm of the IC50, by convention in mol/L) in the experiment filed under Homo sapiens was 6.40. The inhibition in vivo (as a rule, how much of the control response was suppressed) at 10 mg/kg with Mus musculus [1] (Mus musculus, Blood) is 4%.

`CCOC(=O)C1CCCN(CCOc2ccc(Cc3ccccc3)cc2)C1` (configuration not stated): the pIC50 in the experiment filed under Homo sapiens is 5.78; in experiment [2] it was less than 5.52.

Consider `NC(=O)NC1CCN(CCOc2ccc(Cc3ccccc3)cc2)C1` (configuration not stated), for which the pIC50 in the experiment listed under Homo sapiens was 6.46.

For the compound `O=C(O)C1CCN(CCOc2ccc(Cc3ccccc3)cc2)CC1`, the pIC50 in the experiment filed under Homo sapiens was 6.54; in experiment [2], 6.55. Moreover, the inhibition in vivo at 10 mg/kg in the experiment with Mus musculus [1] was 80%.

As to `CN(CCCOc1ccc(Cc2ccccc2)cc1)CCC(=O)O`, the negative logarithm of the IC50 (pIC50) in the experiment filed under Homo sapiens is 7.31. The same compound registered an inhibition in vivo at 10 mg/kg in the experiment with Mus musculus [1] (Mus musculus, Blood) greater than 98%. This compound also came in with an ED90 in the experiment listed under Mus musculus [3] of 1 mg/kg.

As to `COC(=O)C1CC2CC1CN2CCOc1ccc(Cc2ccccc2)cc1` (configuration not stated), the pIC50 in the experiment listed under Homo sapiens is 6.70; in experiment [2] it was 7.33. Further, in the experiment with Mus musculus [1] (Mus musculus, Blood), the inhibition in vivo at 10 mg/kg was determined as 50%.

Take `c1ccc(Cc2ccc(OCCN3CCC(c4nnn[nH]4)CC3)cc2)cc1`: the ED90 in the experiment filed under Mus musculus [3] came to 3 mg/kg.

Regarding `OCC1CCN(CCOc2ccc(Cc3ccccc3)cc2)CC1`, the pIC50 in the experiment filed under Homo sapiens was 6.24; in experiment [2] it was 7.28. This compound registered an inhibition in vivo at 10 mg/kg in the experiment with Mus musculus [1] (Mus musculus, Blood) of 85%.

`COC(=O)C1CCN(CCOc2ccc(Cc3ccccc3)cc2)C1` (configuration not stated) gave a pIC50 in the experiment listed under Homo sapiens of 6.64.

Regarding `COC(=O)CC1CCN(CCOc2ccc(Cc3ccccc3)cc2)C1` (configuration not stated), in the experiment listed under Homo sapiens, the pIC50 was 6.62. The compound also had an inhibition in vivo at 10 mg/kg in the experiment on Mus musculus [1] (Mus musculus, Blood) of 75%. For the same compound, in the experiment listed under Mus musculus [3], the ED90 amounted to 10 mg/kg.

`c1ccc(Cc2ccc(OCCN3CCCCC3)cc2)cc1` had an inhibition in vivo at 10 mg/kg with Mus musculus [1] (Mus musculus, Blood) of 8%.

In turn, `CNC(=O)C1CCN(CCOc2ccc(Cc3ccccc3)cc2)CC1` gave a pIC50 in the experiment filed under Homo sapiens of 6.89. Also, the inhibition in vivo at 10 mg/kg in the experiment on Mus musculus [1] (Mus musculus, Blood) was 92%.

Turning to `OC1CCN(CCOc2ccc(Cc3ccccc3)cc2)C1` (configuration not stated), in experiment [2], the pIC50 is 7.52. Moreover, in the experiment with Mus musculus [1] (Mus musculus, Blood), the inhibition in vivo at 10 mg/kg was 50%.

The compound `NC(=O)N1CCN(CCOc2ccc(Cc3ccccc3)cc2)CC1` gave a pIC50 in the experiment listed under Homo sapiens of 5.62.

`NC1CCN(CCOc2ccc(Cc3ccccc3)cc2)C1` (configuration not stated) had a pIC50 in the experiment filed under Homo sapiens of 6.54.

As to `NC(=O)NC1CCN(CCOc2ccc(Cc3ccccc3)cc2)CC1`, the pIC50 in the experiment filed under Homo sapiens is 6.36.

In the case of `COC(=O)CC1CC2CC1CN2CCOc1ccc(Cc2ccccc2)cc1` (stereo in doubt; 27), in the experiment on Mus musculus [1] (10 mg/kg), the Inhibition (in general, the percentage by which the read-out fell short of the control) came out at 70%.

On to `COC(=O)CC1CC2CC1CN2CCOc1ccc(Cc2ccccc2)cc1` (stereo in doubt; 26), for which the inhibition in vivo at 10 mg/kg in the experiment on Mus musculus [1] (Mus musculus, Blood) was 80%. In addition, in the experiment filed under Mus musculus [3], the ED90 was no less than 10 mg/kg.

With `CC(=O)NC1CCN(CCOc2ccc(Cc3ccccc3)cc2)CC1`, the pIC50 in the experiment listed under Homo sapiens was 6.74.

As to `CC(=O)NC1CCN(CCOc2ccc(Cc3ccccc3)cc2)C1` (configuration not stated), the pIC50 in the experiment listed under Homo sapiens is 6.38. The compound further had an inhibition in vivo at 10 mg/kg in the experiment on Mus musculus [1] (Mus musculus, Blood) of 22%.

Regarding `NC(=O)C1CCN(CCOc2ccc(Cc3ccccc3)cc2)C1` (configuration not stated), the pIC50 in the experiment filed under Homo sapiens was 6.44. In the experiment with Mus musculus [1] (Mus musculus, Blood), this compound came in with an inhibition in vivo at 10 mg/kg of 60%.

For `NC(=O)C1CCN(CCOc2ccc(Cc3ccccc3)cc2)CC1`, the pIC50 in the experiment listed under Homo sapiens was 6.19; in experiment [2], 6.89. Testing at 10 mg/kg in the experiment with Mus musculus [1] (Mus musculus, Blood) gave an inhibition in vivo of 95%. Besides, the ED90 in the experiment listed under Mus musculus [3] was determined as 3 mg/kg.

For `CCOC(=O)C1CCN(CCOc2ccc(Cc3ccccc3)cc2)CC1`, the figures for the pIC50 (in the experiment filed under Homo sapiens; in experiment [2]) were 6.09 and 5.74, respectively. For the same compound, the ED90 in the experiment listed under Mus musculus [4] is 3 mg/kg; in the experiment filed under Rattus norvegicus [5], 3 mg/kg; in the experiment on Rhesus monkey it was less than 10 mg/kg; in the experiment on Rattus norvegicus [6] it was 30 mg/kg. Further, it took a dose of 3 mg/kg to reach the 50% effect level in the experiment with Rattus norvegicus [6] (ED50).

Turning to `c1ccc(Cc2ccc(OCCN3CCCC3)cc2)cc1`, in the experiment filed under Homo sapiens, the pIC50 is 6.92.

In the experiment filed under Homo sapiens, `COC(=O)[C@@H]1CCCN1CCOc1ccc(Cc2ccccc2)cc1` gave a pIC50 of 5.73. This compound returned an inhibition in vivo at 10 mg/kg in the experiment on Mus musculus [1] (Mus musculus, Blood) of 0%.

As for `CCOC(=O)CNC(=O)C1CCN(CCOc2ccc(Cc3ccccc3)cc2)CC1`, the pIC50 in the experiment filed under Homo sapiens was 6.15; in experiment [2] it was 6.96. Moreover, the inhibition in vivo at 10 mg/kg with Mus musculus [1] (Mus musculus, Blood) is 91%. In addition, in the experiment filed under Mus musculus [3], the ED90 came to 3 mg/kg.

(Values after ChEMBL document CHEMBL1134981, “Pyrrolidine and piperidine analogues of SC-57461A as potent, orally active inhibitors of leukotriene A(4) hydrolase” (Bioorg Med Chem Lett, 2002).)
